Our source for the antibacterial activity values is patent EP0259014A2, “5-Deoxy-5-fluorokanamycin B derivatives and processes for the production thereof” (ZAIDAN HOJIN BISEIBUTSU KAGAKU KENKYU KAI, priority 1986, dated 1988).

For test [1], the system named is Staphylococcus aureus Ap 01. Put plainly: Antibacterial activity against resistant strain (background statement). Format: cell-based. Conditions: Staphylococcus aureus Ap 01, resistant strain producing enzyme reacting with the 4'-hydroxyl group.
Test [2] relates to Staphylococcus epidermidis 109. The description is as above. Conditions: Staphylococcus epidermidis 109, resistant strain producing enzyme reacting with the 4'-hydroxyl group. The test is classed as cell-based.

With `NCC1OC(OC2C(N)CC(N)C(OC3OC(CO)C(O)C(N)C3O)C2O)C(N)C(F)C1O` (centres unmarked) [3'-fluoro-3'-deoxykanamycin B], the antibacterial activity result in test [1] and in test [2] was “low antibacterial activity” each time.
